Reference: PMC5488202

Experiment: Ring-closing metathesis (C=C formation) of fluorous-tagged (FDIPES) terminal dienes with Hoveyda-Grubbs 2nd generation catalyst (typically 2 mol%, 1-5 mol%), usually with 1,4-benzoquinone (4-10 mol%); quench P(CH2OH)3/Et3N/silica
Conditions: MTBE, 2.0 mM, 55.0 °C

CC(C)[Si](CCC(F)(F)C(F)(F)C(F)(F)C(F)(F)C(F)(F)C(F)(F)C(F)(F)C(F)(F)F)(OC[C@H]1CC=CCOc2ccccc2COC(=O)N(S(=O)(=O)c2ccccc2[N+](=O)[O-])Cc2cccc(c2)CN1S(=O)(=O)c1ccccc1[N+](=O)[O-])C(C)C (mixture of isomers) [28 (14+10; unchromatographed E/Z mixture)]
ring closure, isolated yield (from C=CCOc1ccccc1COC(=O)N(Cc1cccc(CN([C@H](CC=C)CO[Si](CCC(F)(F)C(F)(F)C(F)(F)C(F)(F)C(F)(F)C(F)(F)C(F)(F)C(F)(F)F)(C(C)C)C(C)C)S(=O)(=O)c2ccccc2[N+](=O)[O-])c1)S(=O)(=O)c1ccccc1[N+](=O)[O-], 18-membered ring, 24.0 h): 88%

CC(C)[Si](CCC(F)(F)C(F)(F)C(F)(F)C(F)(F)C(F)(F)C(F)(F)C(F)(F)C(F)(F)F)(OC[C@H]1CC=CCCN(S(=O)(=O)C(F)(F)F)Cc2cccc(c2)CN1S(=O)(=O)c1ccccc1[N+](=O)[O-])C(C)C (mixture of isomers) [30 (14+12; E/Z mixture)]
ring closure, isolated yield (from C=CCCN(Cc1cccc(CN([C@H](CC=C)CO[Si](CCC(F)(F)C(F)(F)C(F)(F)C(F)(F)C(F)(F)C(F)(F)C(F)(F)C(F)(F)F)(C(C)C)C(C)C)S(=O)(=O)c2ccccc2[N+](=O)[O-])c1)S(=O)(=O)C(F)(F)F, 13-membered ring, 16.0 h): 47%

CC(C)[Si](CCC(F)(F)C(F)(F)C(F)(F)C(F)(F)C(F)(F)C(F)(F)C(F)(F)C(F)(F)F)(OC[C@H]1CC=CCC[C@@H](O[Si](C)(C)C(C)(C)C)[C@H](C)C(=O)N(S(=O)(=O)c2ccccc2[N+](=O)[O-])CC2=CC=C(CN1S(=O)(=O)c1ccccc1[N+](=O)[O-])S2)C(C)C [3 (from 2; E/Z 65:35)]
ring closure, isolated yield (from C=CCC[C@@H](O[Si](C)(C)C(C)(C)C)[C@H](C)C(=O)N(Cc1ccc(CN([C@H](CC=C)CO[Si](CCC(F)(F)C(F)(F)C(F)(F)C(F)(F)C(F)(F)C(F)(F)C(F)(F)C(F)(F)F)(C(C)C)C(C)C)S(=O)(=O)c2ccccc2[N+](=O)[O-])s1)S(=O)(=O)c1ccccc1[N+](=O)[O-], 16-membered ring, 16.0 h): 40%

CC(C)[Si](CCC(F)(F)C(F)(F)C(F)(F)C(F)(F)C(F)(F)C(F)(F)C(F)(F)C(F)(F)F)(OC[C@H]1COCC=CCC[C@@H](O[Si](C)(C)C(C)(C)C)[C@H](C)C(=O)N(S(=O)(=O)c2ccccc2[N+](=O)[O-])Cc2cccc(c2)CN1S(=O)(=O)c1ccccc1[N+](=O)[O-])C(C)C [19 (from 18; Z 50% + E 40%)]
ring closure, isolated yield (from C=CCC[C@@H](O[Si](C)(C)C(C)(C)C)[C@H](C)C(=O)N(Cc1cccc(CN([C@H](COCC=C)CO[Si](CCC(F)(F)C(F)(F)C(F)(F)C(F)(F)C(F)(F)C(F)(F)C(F)(F)C(F)(F)F)(C(C)C)C(C)C)S(=O)(=O)c2ccccc2[N+](=O)[O-])c1)S(=O)(=O)c1ccccc1[N+](=O)[O-], 18-membered ring, 48.0 h): 90%

COc1ccc([C@H]2COCC=CC[C@H](CO[Si](CCC(F)(F)C(F)(F)C(F)(F)C(F)(F)C(F)(F)C(F)(F)C(F)(F)C(F)(F)F)(C(C)C)C(C)C)N(S(=O)(=O)c3ccccc3[N+](=O)[O-])CC3=CC=C(CN(S(=O)(=O)c4ccccc4[N+](=O)[O-])C(=O)OC2)S3)c(OC)c1 [21 (15+9, from 20; 2 steps RCM + denosylation; E/Z 65:35)]
ring closure, isolated yield (from C=CCOC[C@@H](COC(=O)N(Cc1ccc(CN([C@H](CC=C)CO[Si](CCC(F)(F)C(F)(F)C(F)(F)C(F)(F)C(F)(F)C(F)(F)C(F)(F)C(F)(F)F)(C(C)C)C(C)C)S(=O)(=O)c2ccccc2[N+](=O)[O-])s1)S(=O)(=O)c1ccccc1[N+](=O)[O-])c1ccc(OC)cc1OC, 18-membered ring, 24.0 h): 34%

CC(C)[Si](CCC(F)(F)C(F)(F)C(F)(F)C(F)(F)C(F)(F)C(F)(F)C(F)(F)C(F)(F)F)(OC[C@H]1CC=CCC[C@@H](O[Si](C)(C)C(C)(C)C)[C@H](C)CN(S(=O)(=O)C(F)(F)F)Cc2ccccc2CN1S(=O)(=O)c1ccccc1[N+](=O)[O-])C(C)C [23 (13+11, from 22; 2 steps RCM + denosylation; E/Z 30:70)]
ring closure, isolated yield (from C=CCC[C@@H](O[Si](C)(C)C(C)(C)C)[C@H](C)CN(Cc1ccccc1CN([C@H](CC=C)CO[Si](CCC(F)(F)C(F)(F)C(F)(F)C(F)(F)C(F)(F)C(F)(F)C(F)(F)C(F)(F)F)(C(C)C)C(C)C)S(=O)(=O)c1ccccc1[N+](=O)[O-])S(=O)(=O)C(F)(F)F, 15-membered ring): 84%

COc1ccc([C@H]2COCC=CC[C@H](CO[Si](CCC(F)(F)C(F)(F)C(F)(F)C(F)(F)C(F)(F)C(F)(F)C(F)(F)C(F)(F)F)(C(C)C)C(C)C)N(S(=O)(=O)c3ccccc3[N+](=O)[O-])Cc3ccccc3CN(S(=O)(=O)c3ccccc3[N+](=O)[O-])C(=O)OC2)c(OC)c1 [24 (13+9; 2 steps RCM + denosylation; E/Z 60:40)]
ring closure, isolated yield (from C=CCOC[C@@H](COC(=O)N(Cc1ccccc1CN([C@H](CC=C)CO[Si](CCC(F)(F)C(F)(F)C(F)(F)C(F)(F)C(F)(F)C(F)(F)C(F)(F)C(F)(F)F)(C(C)C)C(C)C)S(=O)(=O)c1ccccc1[N+](=O)[O-])S(=O)(=O)c1ccccc1[N+](=O)[O-])c1ccc(OC)cc1OC, 17-membered ring, 24.0 h): 33%

CC(C)[Si](CCC(F)(F)C(F)(F)C(F)(F)C(F)(F)C(F)(F)C(F)(F)C(F)(F)C(F)(F)F)(OC[C@H]1CC=CCOc2ccccc2COC(=O)N(S(=O)(=O)c2ccccc2[N+](=O)[O-])Cc2ccccc2CN1S(=O)(=O)c1ccccc1[N+](=O)[O-])C(C)C [25 (13+10; E/Z 65:35)]
ring closure, isolated yield (from C=CCOc1ccccc1COC(=O)N(Cc1ccccc1CN([C@H](CC=C)CO[Si](CCC(F)(F)C(F)(F)C(F)(F)C(F)(F)C(F)(F)C(F)(F)C(F)(F)C(F)(F)F)(C(C)C)C(C)C)S(=O)(=O)c1ccccc1[N+](=O)[O-])S(=O)(=O)c1ccccc1[N+](=O)[O-], 17-membered ring, 24.0 h): 56%

CC(C)[Si](CCC(F)(F)C(F)(F)C(F)(F)C(F)(F)C(F)(F)C(F)(F)C(F)(F)C(F)(F)F)(OC[C@H]1CC=CCCN(S(=O)(=O)C(F)(F)F)Cc2ccccc2CN1S(=O)(=O)c1ccccc1[N+](=O)[O-])C(C)C [26 (13+12; E/Z >98:<2)]
ring closure, isolated yield (from C=CCCN(Cc1ccccc1CN([C@H](CC=C)CO[Si](CCC(F)(F)C(F)(F)C(F)(F)C(F)(F)C(F)(F)C(F)(F)C(F)(F)C(F)(F)F)(C(C)C)C(C)C)S(=O)(=O)c1ccccc1[N+](=O)[O-])S(=O)(=O)C(F)(F)F, 12-membered ring, 6.0 h): 76%

COc1ccc([C@H]2COCC=CC[C@H](CO[Si](CCC(F)(F)C(F)(F)C(F)(F)C(F)(F)C(F)(F)C(F)(F)C(F)(F)C(F)(F)F)(C(C)C)C(C)C)N(S(=O)(=O)c3ccccc3[N+](=O)[O-])Cc3cccc(c3)CN(S(=O)(=O)c3ccccc3[N+](=O)[O-])C(=O)OC2)c(OC)c1 [27 (14+9; E/Z 60:40)]
ring closure, isolated yield (from C=CCOC[C@@H](COC(=O)N(Cc1cccc(CN([C@H](CC=C)CO[Si](CCC(F)(F)C(F)(F)C(F)(F)C(F)(F)C(F)(F)C(F)(F)C(F)(F)C(F)(F)F)(C(C)C)C(C)C)S(=O)(=O)c2ccccc2[N+](=O)[O-])c1)S(=O)(=O)c1ccccc1[N+](=O)[O-])c1ccc(OC)cc1OC, 18-membered ring, 24.0 h): 56%

CC(C)[Si](CCC(F)(F)C(F)(F)C(F)(F)C(F)(F)C(F)(F)C(F)(F)C(F)(F)C(F)(F)F)(OC[C@H]1CC=CCC[C@@H](O[Si](C)(C)C(C)(C)C)[C@H](C)CN(S(=O)(=O)C(F)(F)F)Cc2cccc(c2)CN1S(=O)(=O)c1ccccc1[N+](=O)[O-])C(C)C [29 (14+11; E/Z 15:85)]
ring closure, isolated yield (from C=CCC[C@@H](O[Si](C)(C)C(C)(C)C)[C@H](C)CN(Cc1cccc(CN([C@H](CC=C)CO[Si](CCC(F)(F)C(F)(F)C(F)(F)C(F)(F)C(F)(F)C(F)(F)C(F)(F)C(F)(F)F)(C(C)C)C(C)C)S(=O)(=O)c2ccccc2[N+](=O)[O-])c1)S(=O)(=O)C(F)(F)F, 16-membered ring, 4.0 h): 78%

CC(C)[Si](CCC(F)(F)C(F)(F)C(F)(F)C(F)(F)C(F)(F)C(F)(F)C(F)(F)C(F)(F)F)(OC[C@H]1CC=CCOc2ccccc2COC(=O)N(S(=O)(=O)c2ccccc2[N+](=O)[O-])CC2=CC=C(CN1S(=O)(=O)c1ccccc1[N+](=O)[O-])S2)C(C)C [31 (15+10; E/Z >98:<2)]
ring closure, isolated yield (from C=CCOc1ccccc1COC(=O)N(Cc1ccc(CN([C@H](CC=C)CO[Si](CCC(F)(F)C(F)(F)C(F)(F)C(F)(F)C(F)(F)C(F)(F)C(F)(F)C(F)(F)F)(C(C)C)C(C)C)S(=O)(=O)c2ccccc2[N+](=O)[O-])s1)S(=O)(=O)c1ccccc1[N+](=O)[O-], 18-membered ring, 16.0 h): 60%

COc1ccc([C@H]2COCC=CCOC[C@@H](CO[Si](CCC(F)(F)C(F)(F)C(F)(F)C(F)(F)C(F)(F)C(F)(F)C(F)(F)C(F)(F)F)(C(C)C)C(C)C)N(S(=O)(=O)c3ccccc3[N+](=O)[O-])Cc3ccccc3CN(S(=O)(=O)c3ccccc3[N+](=O)[O-])C(=O)OC2)c(OC)c1 [32 (16+9; E/Z >98:<2)]
ring closure, isolated yield (from C=CCOC[C@@H](COC(=O)N(Cc1ccccc1CN([C@@H](COCC=C)CO[Si](CCC(F)(F)C(F)(F)C(F)(F)C(F)(F)C(F)(F)C(F)(F)C(F)(F)C(F)(F)F)(C(C)C)C(C)C)S(=O)(=O)c1ccccc1[N+](=O)[O-])S(=O)(=O)c1ccccc1[N+](=O)[O-])c1ccc(OC)cc1OC, 19-membered ring, 36.0 h): 88%

CC(C)[Si](CCC(F)(F)C(F)(F)C(F)(F)C(F)(F)C(F)(F)C(F)(F)C(F)(F)C(F)(F)F)(OC[C@@H]1COCC=CCOc2ccccc2COC(=O)N(S(=O)(=O)c2ccccc2[N+](=O)[O-])Cc2ccccc2CN1S(=O)(=O)c1ccccc1[N+](=O)[O-])C(C)C [33 (16+10; E/Z >98:<2)]
ring closure, isolated yield (from C=CCOC[C@@H](CO[Si](CCC(F)(F)C(F)(F)C(F)(F)C(F)(F)C(F)(F)C(F)(F)C(F)(F)C(F)(F)F)(C(C)C)C(C)C)N(Cc1ccccc1CN(C(=O)OCc1ccccc1OCC=C)S(=O)(=O)c1ccccc1[N+](=O)[O-])S(=O)(=O)c1ccccc1[N+](=O)[O-], 19-membered ring, 48.0 h): 75%
